# Patent publication US20230174988A1, “METHODS FOR INDUCING BILE ACID SULFOTRANSFERASE SULT2A FOR TREATING METABOLIC DISORDERS” (priority 2020, published 2023)
# Entries after “also recorded” stand apart in the source; their conditions may differ. Where two headings read alike, the source gives them in different places.
# Legend:
# NCI-H716 cells [1] = test: GLP-1 secretion in NCI-H716 cells in vitro; assay type: cell-based, human; settings: for GLP-1 secretion in vitro by CA7S extracted from cecal contents of SG mice: purified CA7S 500 μM vs DMSO
# Source text: TGR5 agonism also results in elevated intracellular calcium levels^19.
# NCI-H716 cells [2] = test: intracellular calcium levels in NCI-H716 cells; assay type: cell-based, human; settings: NCI-H716 (L-cells)
# [3] = stability after incubation at 37° C. in buffer at physiological pHs (UPLC-MS); assay type: physicochemical
# Caco-2 cells = test: cell viability of Caco-2 cells; assay type: cell-based, human; settings: concentrations up to 3 mM
# DIO mice [4] = test: acute treatment of DIO mice via duodenal and rectal catheters: GLP-1 and blood glucose; assay type: in vivo, mouse; settings: HFD-fed (DIO) mice, 1 mg CA7S vs PBS, within 15 min
# macrophages = test: IL-10 secretion from macrophages in vitro; assay type: cell-based
# NF-kB = NF-kB reporter assay in THP1-Blue cells; assay type: cell-based, human; settings: LPS-induced inflammation
# macrophage = macrophage cell viability; assay type: cell-based
# in vivo = settings: mouse, 1 mg
# SULT2A1 = SULT2A1 expression in HepG2 cells (qRT-PCR); assay type: cell-based; settings: normalized to human GAPDH
# TGR5 = molecular target: T1, TGR5 (Homo sapiens, UniProt Q8TDU6); test: relative TGR5 expression (FIG. 40); assay type: cell-based
# T1 sequence (Q8TDU6 1-330): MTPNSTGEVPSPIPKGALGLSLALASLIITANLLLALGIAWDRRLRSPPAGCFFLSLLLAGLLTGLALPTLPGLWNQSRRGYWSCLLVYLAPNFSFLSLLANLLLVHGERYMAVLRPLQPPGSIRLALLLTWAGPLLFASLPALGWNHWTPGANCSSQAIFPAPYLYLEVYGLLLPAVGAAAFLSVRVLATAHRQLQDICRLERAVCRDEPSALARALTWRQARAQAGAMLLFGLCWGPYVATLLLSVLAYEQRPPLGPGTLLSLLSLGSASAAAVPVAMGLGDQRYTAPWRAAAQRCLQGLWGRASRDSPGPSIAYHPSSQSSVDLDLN
# Source text: FIG. 40B-D show the relative TGR5 expression of the various compounds.
# DIO mice [5] = test: portal vein injection of LCA in DIO mice; assay type: in vivo, mouse; settings: LCA 50 μM into portal vein
# ASBT = ASBT expression in Caco-2 cells; assay type: cell-based, human; design: dose or concentration left out as unconfirmed; settings: LCA
# GF mice = GF mice administered 0.3% LCA (w/w) in chow for 1 week; assay type: in vivo, mouse; settings: 0.3% LCA in chow
# [6] = listed as Cholic acid 7-sulfate
# [7] = listed as cholic acid 7-sulfate
# [8] = HFD-fed mice, acute cholic acid 7-sulfate treatment
structure (smiles),measurement,setting,value
"C[C@H](CCC(=O)O)[C@H]1CC[C@H]2[C@@H]3[C@H](OS(=O)(=O)O)C[C@@H]4C[C@H](O)CC[C@]4(C)[C@H]3C[C@H](O)[C@]12C [CA7S, cholic acid 7-sulfate]",GLP-1 secretion in vitro,NCI-H716 cells [1],induced GLP-1 secretion to a similar degree as TDCA in a dose-dependent manner
same,GLP-1 secretion in vitro,NCI-H716 cells [1]; [6],induces GLP-1 secretion in vitro better than the known GLP-1 inducer TDCA
same,GLP-1 secretion in vitro by CA7S extracted from cecal contents of SG mice,NCI-H716 cells [1],induced GLP-1 secretion in vitro
same,GLP-1 secretion in vitro by CA7S extracted from cecal contents of SG mice,NCI-H716 cells [1]; [7],exhibit activity inducing GLP-1 secretion in vitro
same,intracellular calcium levels,NCI-H716 cells [2],dose-dependent increase in calcium levels
same,intracellular calcium levels,NCI-H716 cells [2]; [6],increased calcium levels
same,stability at physiological pHs,[3],stable at physiological pHs
same,stability at physiological pHs,[3]; [6],stable in a wide range of pHs
same,toxicity / viability of intestinal Caco-2 cells,Caco-2 cells,does not affect the viability
same,toxicity / viability of intestinal Caco-2 cells,Caco-2 cells; [6],no toxicity
same,blood glucose levels,DIO mice [4],reduced blood glucose levels
same,systemic GLP-1 levels,DIO mice [4],increased systemic GLP-1 levels
same,systemic GLP-1 levels,DIO mice [4]; [7],induced GLP-1 levels
same,IL-10 secretion,macrophages,induces secretion of the anti-inflammatory cytokine IL-10
same,NFkB activation,NF-kB,reduces NFkB activation
same,macrophage cell viability,macrophage,does not affect macrophage cell viability
same,inflammation in vivo,inflammation in vivo,improves inflammation in vivo
same,"Cholic acid 7-sulfate concentration (mean ± SEM), Cecum",[8],2577 ± 185.3 pmol/mg
same,"Cholic acid 7-sulfate concentration (mean ± SEM), Hepatic portal vein",[8],6.128 ± 2.111 pmol/mg
same,CA7S in cecal contents,"administration of 1 mg, on average",2500 pmol/mg wet mass
same,leak into systemic circulation and portal vein (gut restriction),"ectopic introduction in mice, listed as cholic acid 7-sulfate",only minor amounts
same,concentration at 15 min,"in vivo; Cholic acid 7-sulfate concentration (mean ± SEM), Blood, HFD-fed mice, acute cholic acid 7-sulfate treatment",0.495 ± 0.167 µM
same,concentration at 15 min,"in vivo; cholic acid 7-sulfate in the cecum, dosing with 1 mg",~2500 µM
"C[C@H](CCC(=O)O)[C@H]1CC[C@H]2[C@@H]3[C@H](O)C[C@@H]4C[C@H](O)CC[C@]4(C)[C@H]3C[C@H](O)[C@]12C [CA, cholic acid, reference compound]",GLP-1 secretion in vitro,NCI-H716 cells [1],had no effect on GLP-1 secretion
same,GLP-1 secretion in vitro,NCI-H716 cells [1]; listed as cholic acid,had no effect
same,SULT2A1 expression,SULT2A1,did not induce SULT2A1 expression at all concentrations tested
"C[C@H](CCC(=O)O)[C@H]1CC[C@H]2[C@@H]3[C@H](O)C[C@@H]4C[C@H](O)CC[C@]4(C)[C@H]3CC[C@]12C [CDCA, chenodeoxycholic acid]",SULT2A1 expression,SULT2A1,did not induce SULT2A1 expression at all concentrations tested
COC(=O)CC[C@@H](C)[C@H]1CC[C@H]2[C@@H]3[C@H](NS(=O)(=O)O)[C@@H](O[Si](C)(C)C(C)(C)C)[C@@H]4C[C@H](O[Si](C)(C)C(C)(C)C)CC[C@]4(C)[C@H]3CC[C@]12C [Compound 3-8],TGR5 expression,TGR5,induces TGR5 expression
"C[C@H](CCC(=O)O)[C@H]1CC[C@H]2[C@@H]3[C@H](OP(=O)(O)O)C[C@@H]4C[C@H](O)CC[C@]4(C)[C@H]3C[C@H](O)[C@]12C [Compound 9, cholic acid-7-phosphate]",TGR5 expression,TGR5,induces TGR5 expression
COC(=O)CC[C@@H](C)[C@H]1CC[C@H]2[C@@H]3[C@H](OP(=O)(OCc4ccccc4)OCc4ccccc4)C[C@@H]4C[C@H](O[Si](C)(C)C(C)(C)C)CC[C@]4(C)[C@H]3CC[C@]12C [Compound 9-2],TGR5 expression,TGR5,induces TGR5 expression
"C[C@H](CCC(=O)O)[C@H]1CC[C@H]2[C@@H]3CC[C@@H]4C[C@H](O)CC[C@]4(C)[C@H]3CC[C@]12C [LCA, 3α-hydroxy-5β-cholan-24-oic acid]",SULT2A1 expression,SULT2A1,induced SULT2A1; also recorded: could induce SULT2A1 expression in a dose dependent manner
same,CA7S levels in the gallbladder,DIO mice [5],increase in CA7S levels in the gallbladder
same,SULT2A1 expression level in mouse liver,DIO mice [5]; two hours after injection,significant increase
same,VDR expression level in mouse liver,DIO mice [5]; two hours after injection,significant increase
same,ASBT expression,ASBT,inhibited expression of ASBT
same,Asbt expression in SI and DI,GF mice,inhibited expression of Asbt in SI and DI
same,VDR expression in liver,GF mice,increased expression
same,mSult2A1 expression in liver,GF mice,increased expression
same,LCA levels in intestine after feeding,GF mice; 1 week,"accumulation of LCA in the proximal small intestine (SI), distal ileum (DI), and cecum"
same,CA7S production and accumulation,GF mice; gallbladder and distal ileum,induced CA7S production and accumulation in the gallbladder (GB) and the DI
"C[C@H](CCC(=O)NCCS(=O)(=O)O)[C@H]1CC[C@H]2[C@@H]3CC[C@@H]4C[C@H](O)CC[C@]4(C)[C@H]3C[C@H](O)[C@]12C [TCDCA, taurodeoxycholic acid]",SULT2A1 expression,SULT2A1,did not induce SULT2A1 expression at all concentrations tested
